In patent publication EP4623928A1, “GLP-1R ANTAGONISTS FOR THE TREATMENT OF CANCER” (Fiorina, Paolo, priority 2024, dated 2025):

How the values were obtained:
[1] = tested on: untransduced-mock and pmY-GLP-1R transduced CD3^+ T cells; assay: Seahorse bioenergetic analysis, mock and pmY-GLP-1R transduced CD3+ T cells; format: cell-based, murine; conditions: pmY-GLP-1R transduced vs untransduced-mock CD3^+ T cells, Exe-4 (1 nM)
Protocol: Cellular Bioenergetics were analyzed using the Seahorse Extracellular Flux Analyzer Xfe96 (Agilent Technologies, Santa Clara, CA, United States), which simultaneously measures Oxygen Consumption Rate (OCR, pmolO2/min), ExtraCellular Acidification Rate (ECAR, mpH/min) and Proton Efflux Rate (PER, pmolH^+/min). For Seahorse experiments 150.000 cells either freshly isolated GLP-1R^pos or GLP-1R^neg CD3^+ T cells or activated with soluble anti-CD3/CD28 at 0.5 µg/ml each in the presence or not of Exe-4 (1 nM); in another setting untransduced mock CD3^+ T cells or pmY-GLP-1R CD3^+ T cells already activated with soluble anti-CD3/CD28 at 0.5 µg/ml each in the presence or not of Exe-4 (1 nM). Cells were resuspended in 50 µL assay medium (Agilent #103576-100 RPMI Medium pH7.4, supplemented with 10mM glucose, 2mM glutamine and 1mM Na-pyruvate) were seeded in each CellTak-precoated well of an Agilent Xfe96 Pro well plate. The cell plate was centrifuged 2 times at 40 × g (zero braking) for 1 minute. After centrifugation, 150 µL warm assay medium was gently added to each well. […]
Seahorse parameters were normalized to cell number in each well. To this purpose, at the end of the Seahorse analysis, cell nuclei were stained with Hoechst 33342 (1 µg/mL) for about 15 min, imaged and counted with Operetta CLS™ software Harmony, as previously described (43). […]

[2] = tested on: GLP-1R^pos and GLP-1R^neg CD3^+ T cells; assay: Transwell migration assay toward SDF-1, GLP-1Rpos and GLP-1Rneg CD3+ T cells; format: cell-based, C57BL/6 mice; conditions: GLP-1R^neg CD3^+ T cells only, Exe-4 (1 nM), SDF-1 gradient
Protocol: Transwell migration assays were performed on GLP-1R^pos and GLP-1R^neg CD3^+ cells or respectively untransduced-mock CD3^+ T cells or pmY-GLP-1R transduced CD3^+ T cells, freshly isolated or activated with anti-CD3/CD28 (0.5 µg /ml each) in the presence or not of Exe-4 (1 nM). Chemotaxis assessments via transwell migration assay were performed using polycarbonate membranes with 5 µm pores (Corning) in accordance with the manufacturer's instructions and as previously published (42). Cells were washed, re-suspended in migration media (RPMI), and added to the upper chamber of the plate, while migration media containing 0 or 50 ng/mL SDF-1 (R&D Systems) was added to the bottom chamber. Treated cells were incubated over night at 37°C to migrate through the polycarbonate membrane into the bottom chamber. Input cell counts were obtained by flow cytometry with a BD FACSCelesta (BD, Biosciences) as well as cell counts of migrated cells in the lower chambers. Migration percentage was calculated as the number of cells in the lower chamber (migrated) compared to total input cell count for three separate wells. Mean migration percentages and standard deviations (SD) were calculated across the different donor cell lots. Analysis of lower chambers without SDF-1 (negative gradients) was used to control for any nonspecific increase in chemotaxis.

Cardiac allografts = assay: Murine cardiac allotransplantation (BALB/c hearts into C57BL/6 mice); format: in vivo
Protocol: Cardiac allografts from BALB/c mice were transplanted intra-abdominally in C57BL/6 mice using microsurgical techniques as described (31). Rejection was determined as complete cessation of cardiac contractility and was confirmed by direct visualization. Transplanted mice were intraperitoneally injected according to the following protocols: 1) Exendin-4 (Exe-4) (Amylin Pharmaceuticals, San Diego, CA - USA) 0.2pg twice/day for two weeks after transplant; 2) Exe-4 0.2pg twice/day from the day before until two weeks after transplant; 3) Exe-4 2µg twice/day from the day before until two weeks after transplant; 4) Exe-4 2µg twice/day + Exendin-9-39 (Exe-9) (Sigma-Aldrich) 2µg twice/day from the day before until two weeks after transplant; 5) Exe-4 2µg twice/day from the day before until two weeks after transplant + Rapamycin 0.1mg/die for two weeks; 6) saline 0.5ml twice/day for two weeks.

[3] = tested on: naive CD4^+CD25^- T cells; assay: Treg induction assay; format: cell-based; conditions: Exe-4 (1nM), 5 days
Protocol: Naive CD4^+ CD25^- T cells were selected and activated for 5 days with 1 µg/ml of plate-bound […] anti-CD3 and anti-CD28 antibodies (BD Biosciences). Cells were cultured for 5-days in the presence of IL-2 (10ng/ml; R&D Systems) and TGFβ (2ng/mL; R&D Systems), anti-IL-4 (0.5µg/ml; PeproTech) and anti-IFNγ (2µg/mL; PeproTech) and were treated with Exe-4 (1nM) or left untreated. Then, cells were washed, pulsed for 4-hrs with phorbol myristate acetate (PMA; 50ng/mL; Sigma-Aldrich), ionomycin (500ng/mL; Sigma-Aldrich) and Golgi-stop (1.0µl/mL; BD Biosciences) and then analyzed by FACSCelesta (BD Biosciences) for the expression of Foxp3, Tbet and RoryT as previously reported (38).

effector T cells = assay: Effector T cell suppression by iTregs generated with Exe-4 (CTV dilution); format: cell-based; conditions: iTregs generated in the presence of Exe-4, ratio of 1: 4 to effector T cells, vs untreated-iTregs

## Exendin-4 [Exe-4]
[1]
  ATP production from mitochondrial respiration: significantly increased
  OCR values: significantly increased
[2]
  migratory potential: reduced
Cardiac allografts; day-7 heart allograft, Exe-4-treated mice
  graft infiltration (Hematoxylin and eosin staining): decrease of graft infiltration
Cardiac allografts; first of three Exe-4 regimens listed 'respectively' (low or high dose, preceded or not with pre-treatment), untreated [MST]=7 days, p<0.01
  [MST] (cardiac allograft survival): 9 days
Cardiac allografts; second of three Exe-4 regimens listed 'respectively', p<0.01 vs untreated
  [MST] (cardiac allograft survival): 10 days
Cardiac allografts; splenic, Exe-4-treated mice
  CD4^+ and CD8^+ effector T cells: significant decrease
  Tregs: no effect
Cardiac allografts; third of three Exe-4 regimens listed 'respectively', p<0.01 vs untreated
  [MST] (cardiac allograft survival): 10 days
[3]
  Ror-yT on iTregs (iTreg stability): significant reduction
  Tbet on iTregs (iTreg stability): significant reduction
  Treg induction (percentage of FoxP3^+CD4^+CD25^+ Tregs): no substantial differences
Effector T cells
  suppression of effector T cells by iTregs: significantly reduced suppression
